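All cell lines were grown in 96-well plates and treated with compound for 48 hours. Abbreviation: GI50, concentration required for 50% inhibition of growth.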 Activity calls are given as the source filed them. Cut-off read from the data, not from the text of the source: active = GI50 up to about 1.1 µM and inactive = higher.
How the values were obtained:
Experiment in all cases: DTP human tumour cell line panel, 48 h
MDA-N = system: MDA-N
CAKI-1 = system: CAKI-1
SF-539 = system: SF-539
TK-10 = system: TK-10
COLO 205 = system: COLO 205
Hs-578T = system: Hs-578T
NCI-H23 = system: NCI-H23
NCI-H226 = system: NCI-H226
BT-549 = system: BT-549
ACHN = system: ACHN
SK-OV-3 = system: SK-OV-3
786-0 = system: 786-0
HCC 2998 = system: HCC 2998
SN12C = system: SN12C
NCI-H522 = system: NCI-H522
NCI-H460 = system: NCI-H460
MOLT-4 = system: MOLT-4
HL-60 = system: HL-60
OVCAR-5 = system: OVCAR-5
UACC-257 = system: UACC-257

Row | SMILES | GI50 (MDA-N) | GI50 (CAKI-1) | GI50 (SF-539) | GI50 (TK-10) | GI50 (COLO 205) | GI50 (Hs-578T) | GI50 (NCI-H23) | GI50 (NCI-H226) | GI50 (BT-549) | GI50 (ACHN) | GI50 (SK-OV-3) | GI50 (786-0) | GI50 (HCC 2998) | GI50 (SN12C) | GI50 (NCI-H522) | GI50 (NCI-H460) | GI50 (MOLT-4) | GI50 (HL-60) | GI50 (OVCAR-5) | GI50 (UACC-257)
1 | C=C(CO[Si](C)(C)C(C)(C)C)C(C)=O | 15.3 µM (inactive) | 22.3 µM (inactive) | 39.1 µM (inactive) | > 100 µM (inactive) | 24.5 µM (inactive) | 25.8 µM (inactive) | 26.3 µM (inactive) | > 69.3 µM (inactive) | 20.2 µM (inactive) | 26.5 µM (inactive) | > 89.3 µM (inactive) | 17.2 µM (inactive) | 26.1 µM (inactive) | 27.7 µM (inactive) | 3.78 µM (inactive) | > 77.4 µM (inactive) | 2.18 µM (inactive) | 13.8 µM (inactive) | 31 µM (inactive) | 18 µM (inactive)
2 | Cc1cc(/N=C2\C=C(Nc3cc(C)on3)C(=O)c3ccccc32)no1 | 1.96 µM (inactive) | > 85.9 µM (inactive) | 31.6 µM (inactive) | 55 µM (inactive) | 31.3 µM (inactive) | 13.2 µM (inactive) | 4.69 µM (inactive) | > 92 µM (inactive) | 27.5 µM (inactive) | > 64.3 µM (inactive) | 77.8 µM (inactive) | 38.1 µM (inactive) | > 100 µM (inactive) | > 80.9 µM (inactive) | > 100 µM (inactive) | > 67.8 µM (inactive) | > 100 µM (inactive) | > 100 µM (inactive) | > 76 µM (inactive) | 13.9 µM (inactive)
3 | Cc1cc(C)c2c(=N)c3ccccc3n(CCCCCCn3c4ccccc4c(=N)c4c(C)cc(C)nc43)c2n1 | 1.78 µM (inactive) | 1.45 µM (inactive) | 1.54 µM (inactive) | 1.64 µM (inactive) | 1.57 µM (inactive) | 1.66 µM (inactive) | 1.4 µM (inactive) | 1.66 µM (inactive) | 1.56 µM (inactive) | 1.55 µM (inactive) | 1.62 µM (inactive) | 0.224 µM (active) | 0.172 µM (active) | 1.5 µM (inactive) | 1.39 µM (inactive) | 0.859 µM (active) | 0.627 µM (active) | 0.28 µM (active) | 1.84 µM (inactive) | 1.64 µM (inactive)

— ChEMBL document CHEMBL1201862, “PubChem BioAssay data set” (2004)
